The source of these data is patent US12195455B2, “Succinate and fumarate acid addition salts of piperazine derivatives” (Asceneuron SA, priority 2018, dated 2025).

The structures appear in SMILES notation.

How the values of the data set were obtained:
The free base Example 35 (10 mg) was weighed into glass vials and water was added in 100 μL portions up to 1 mL then 0.5 mL portions thereafter. Solubility was assessed visually following a brief period of equilibration.

`C[C@@H](c1ccc2scnc2c1)N1CCN(c2ncc([S@@](C)(=N)=O)cn2)CC1` (single isomer, unassigned) [Example 35] registered a visual aqueous solubility below 1250 µg/mL.
